Key:
[1] = Stability of the conjugate in ammonium acetate buffer, HPLC; format: physicochemical; conditions: for % release of Compound IIA from the conjugate: 37° C., after four hours incubation
Protocol: Stability of the conjugates was studied using HPLC analysis. The conjugate was incubated in ammonium acetate buffers at pH 4 and 5.2 at 37° C. Each solution was then taken periodically and applied to an HPLC column using a method reported above. The amount of material released from the conjugate was determined and expressed as percent of released material.
To 0.5 mg of conjugate, ammonium acetate 5 mM pH=5.2 buffer solution (200 mL) was added. The solution was warmed at 37° C. and sample was taken periodically and analyzed by HPLC (method 2). Results are expressed as % of released material (8S,10S)-6,8,11-trihydroxy-8-(hydroxyacetyl)-1-methoxy-10-{[(1S,3R,4aS,9S,9aR,10aS)-9-methoxy-1-methyloctahydro-1H-pyrano[4′,3′:4,5][1,3]oxazolo[2,3-c][1,4]oxazin-3-yl]oxy}-7,8,9,10-tetrahydrotetracene-5,12-dione (Compound IIA) from the conjugate. […]

tumor models = conditions: cited from earlier work
SK-BR-3 cells = experiment: CellTiter-Glo in vitro cell proliferation assay, SK-BR-3; format: cell-based; conditions: continuous exposure, 3 days
From the text: (§1) Cell-based in vitro assays may be used to measure viability, i.e. proliferation (IC50), cytotoxicity (EC50), and induction of apoptosis (caspase activation) of the ADC. The CellTiter-Glo® Luminescent Cell Viability Assay is a commercially available (Promega Corp., Madison, Wis.), homogeneous assay method based on the recombinant expression of Coleoptera luciferase (U.S. Pat. Nos. 5,583,024; 5,674,713; 5,700,670). This cell proliferation assay determines the number of viable cells in culture based on quantitation of the ATP present, an indicator of metabolically active cells (Crouch et al (1993) J. Immunol. Meth. 160:81-88; U.S. Pat. No. 6,602,677). The CellTiter-Glo® Assay is conducted in 96 well format, making it amenable to automated high-throughput screening (HTS) (Cree et al (1995) AntiCancer Drugs 6:398-404). The homogeneous assay procedure involves adding the single reagent (CellTiter-Glo® Reagent) directly to cells cultured in serum-supplemented medium. Cell washing, removal of medium and multiple pipetting steps are not required. The system detects as few as 15 cells/well in a 384-well format in 10 minutes after adding reagent and mixing.
(§2) The in vitro potency of antibody-drug conjugates was measured by a cell proliferation assay (FIGS. 8-29). The CellTiter-Glo® Luminescent Cell Viability Assay is a commercially available (Promega Corp., Madison, Wis.), homogeneous assay method based on the recombinant expression of Coleoptera luciferase (U.S. Pat. Nos. 5,583,024; 5674,713; 5,700,670). This assay determines the number of viable cells in culture based on quantitation of the ATP present, an indicator of metabolically active cells (Crouch et al (1993) J. Immunol. Meth. 160:81-88; U.S. Pat. No. 6,602,677). The CellTiter-Glo® Assay was conducted in 96 well format, making it amenable to automated high-throughput screening (HTS) (Cree et al (1995) AntiCancer Drugs 6:398-404). The homogeneous assay procedure involves adding the single reagent (CellTiter-Glo® Reagent) directly to cells cultured in serum-supplemented medium.
(§3) The homogeneous “add-mix-measure” format results in cell lysis and generation of a luminescent signal proportional to the amount of ATP present. The substrate, Beetle Luciferin, is oxidatively decarboxylated by recombinant firefly luciferase with concomitant conversion of ATP to AMP and generation of photons. Viable cells are reflected in relative luminescence units (RLU). Data can be recorded by luminometer or CCD camera imaging device. The luminescence output is presented as RLU, measured over time. Alternatively, photons from luminescence can be counted in a scintillation counter in the presence of a scintillant. The light units can be represented then as CPS—counts per second.
(§4) Efficacy of ADC were measured by a cell viability assay employing the following protocol, adapted from CellTiter Glo Luminescent Cell Viability Assay, Promega Corp. Technical Bulletin TB288 and Mendoza et al (2002) Cancer Res. 62:5485-5488: • 1. An aliquot of 50 μl of cell culture containing about 1000 or more cells, including: HER2-expressing and CD22-expressing cells, in medium was deposited in each well of a 96-well, opaque-walled, clear bottom plate. • 2. ADC (50 μl) was added to triplicate experimental wells to final concentration of 10 μg/mL, with “no ADC” control wells receiving medium alone, and incubated for 3 or more days. • 3. The plates were equilibrated to room temperature for approximately 30 minutes. • 4. CellTiter-Glo Reagent (100 μl) was added. • 5. The contents were mixed for 2 minutes on an orbital shaker to induce cell lysis. • 6. The plate was incubated at room temperature for 10 minutes to stabilize the luminescence signal. • 7. Luminescence was recorded and reported in graphs as RLU=relative luminescence units.

BT-474 cells = experiment: CellTiter-Glo in vitro cell proliferation assay, BT-474; format: cell-based; conditions: continuous exposure, 3 days
From the text: as §1, §2, §3, §4

[2] = tested on: doxorubicin-resistant (DoxRes) HER2 cells; experiment: CellTiter-Glo in vitro cell proliferation assay, doxorubicin-resistant HER2; format: cell-based; conditions: continuous exposure, 3 days
From the text: as §1, §2, §3, §4

MCF7 cells = experiment: CellTiter-Glo in vitro cell proliferation assay, MCF7; format: cell-based, human; conditions: continuous exposure, 3 days
From the text: as §1, §2, §3, §4

CNC(=O)COC1(OCC(=O)[C@]2(O)Cc3c(O)c4c(c(O)c3[C@@H](O[C@H]3C[C@H]5[C@H](O[C@@H]6[C@@H](OC)OCCN65)[C@H](C)O3)C2)C(=O)c2c(OC)cccc2C4=O)CCCCC1 [Compound 2, N-methyl-2-[(1-{2-oxo-2-[(2S,4S)-2,5,12-trihydroxy-7-methoxy-4-{[(1S,3R,4aS,9S,9aR,10aS)-9-methoxy-1-methyloctahydro-1H-pyrano[4′,3′:4,5][1,3]oxazolo[2,3-c][1,4]oxazin-3-yl]oxy}-6,11-dioxo-1,2,3,4,6,11-hexahydrotetracen-2-yl]ethoxy}cyclohexyl)oxy]acetamide]
stability at pH 5.2, release of compound of formula (IIA) over time, in words ([1]; pH 5.2, FIG. 1): increased release of the free compound of the formula (IIA)

COc1cccc2c1C(=O)c1c(O)c3c(c(O)c1C2=O)C[C@@](O)(C(=O)CO)C[C@@H]3O[C@H]1C[C@H](N2CCO[C@H](OC)C2)[C@H](O)[C@H](C)O1 [nemorubicin, (8S,10S)-6,8,11-trihydroxy-10-((2R,4S,5S,6S)-5-hydroxy-4-((S)-2-methoxymorpholino)-6-methyltetrahydro-2H-pyran-2-yloxy)-8-(2-hydroxyacetyl)-1-methoxy-7,8,9,10-tetrahydrotetracene-5,12-dione]
antitumor activity in in vivo tumor models, in words (tumor models): promising antitumor activity on experimental murine tumors

COc1cccc2c1C(=O)c1c(O)c3c(c(O)c1C2=O)C[C@@](O)(/C(CO)=N/NC(=O)CCSSC[C@H](NC(C)=O)C(=O)O)C[C@@H]3O[C@H]1C[C@H]2[C@H](O[C@@H]3[C@@H](OC)OCCN32)[C@H](C)O1 [Compound 12, N-acetyl-3-({3-[(2E)-2-{2-hydroxy-1-[(2S,4S)-2,5,12-trihydroxy-7-methoxy-4-{[(1S,3R,4aS,9S,9aR,10aS)-9-methoxy-1-methyloctahydro-1H-pyrano[4′,3′:4,5][1,3]oxazolo[2,3-c][1,4]oxazin-3-yl]oxy}-6,11-dioxo-1,2,3,4,6,11-hexahydrotetracen-2-yl]ethylidene}hydrazinyl]-3-oxopropyl}disulfanyl)-L-alanine]
% release of Compound IIA from the conjugate ([1]; pH 4.2 buffer solution): 100%
% release of Compound IIA from the conjugate ([1]; pH 5.2 buffer solution): 90%

COc1cccc2c1C(=O)c1c(O)c3c(c(O)c1C2=O)C[C@@](O)(/C(CO)=N/NC(=O)CCSSc1ccccn1)C[C@@H]3O[C@H]1C[C@H]2[C@H](O[C@@H]3[C@@H](OC)OCCN32)[C@H](C)O1 [Compound 53, N′-{(1E)-2-hydroxy-1-[(2S,4S)-2,5,12-trihydroxy-7-methoxy-4-{[(1S,3R,4aS,9S,9aR,10aS)-9-methoxy-1-methyloctahydro-1H-pyrano[4′,3′:4,5][1,3]oxazolo[2,3-c][1,4]oxazin-3-yl]oxy}-6,11-dioxo-1,2,3,4,6,11-hexahydrotetracen-2-yl]ethylidene}-3-(pyridin-2-yldisulfanyl)propanehydrazide]
SK-BR-3 in vitro cell viability at 3 days, anti-proliferative activity in words (SK-BR-3 cells): less potent than free Ant
BT-474 in vitro cell viability at 3 days, anti-proliferative activity in words (BT-474 cells): minimal anti-proliferative activity
DoxRes HER2 in vitro cell viability at 3 days, anti-proliferative activity in words [2]: less potent than free Ant
MCF7 in vitro cell viability at 3 days, anti-proliferative activity in words (MCF7 cells): minial anti-proliferative activity

COc1cccc2c1C(=O)c1c(O)c3c(c(O)c1C2=O)C[C@@](O)(C(=O)COC1CCCC(COCC(=O)ON2C(=O)CCC2=O)O1)C[C@@H]3O[C@H]1C[C@H]2[C@H](O[C@@H]3[C@@H](OC)OCCN32)[C@H](C)O1 (stereo partly drawn) [Compound 50, 1-({[(6-{2-oxo-2-[(2S,4S)-2,5,12-trihydroxy-7-methoxy-4-{[(1S,3R,4aS,9S,9aR,10aS)-9-methoxy-1-methyloctahydro-1H-pyrano[4′,3′:4,5][1,3]oxazolo[2,3-c][1,4]oxazin-3-yl]oxy}-6,11-dioxo-1,2,3,4,6,11-hexahydrotetracen-2-yl]ethoxy}tetrahydro-2H-pyran-2-yl)methoxy]acetyl}oxy)pyrrolidine-2,5-dione]
SK-BR-3 in vitro cell viability at 3 days, anti-proliferative activity in words (SK-BR-3 cells): minimal anti-proliferative activity
BT-474 in vitro cell viability at 3 days, anti-proliferative activity in words (BT-474 cells): inactive
DoxRes HER2 in vitro cell viability at 3 days, anti-proliferative activity in words [2]: minimal anti-proliferative activity
MCF7 in vitro cell viability at 3 days, anti-proliferative activity in words (MCF7 cells): inactive

COc1cccc2c1C(=O)c1c(O)c3c(c(O)c1C2=O)C[C@@](O)(C(=O)COC1CCCC(COCC(=O)NCCN2C(=O)C=CC2=O)O1)C[C@@H]3O[C@H]1C[C@H]2[C@H](O[C@@H]3[C@@H](OC)OCCN32)[C@H](C)O1 (some centres unmarked) [Compound 51]
SK-BR-3 in vitro cell viability at 3 days, anti-proliferative activity in words (SK-BR-3 cells): minimal anti-proliferative activity
BT-474 in vitro cell viability at 3 days, anti-proliferative activity in words (BT-474 cells): inactive
DoxRes HER2 in vitro cell viability at 3 days, anti-proliferative activity in words [2]: minimal anti-proliferative activity
MCF7 in vitro cell viability at 3 days, anti-proliferative activity in words (MCF7 cells): inactive

COc1cccc2c1C(=O)c1c(O)c3c(c(O)c1C2=O)C[C@@](O)(/C(CO)=N/NC(=O)CCCCCN1C(=O)C=CC1=O)C[C@@H]3O[C@H]1C[C@H]2[C@H](O[C@@H]3[C@@H](OC)OCCN32)[C@H](C)O1 [Compound 52, 6-(2,5-dioxo-2,5-dihydro-1H-pyrrol-1-yl)-N′-{(1E)-2-hydroxy-1-[(2S,4S)-2,5,12-trihydroxy-7-methoxy-4-{[(1S,3R,4aS,9S,9aR,10aS)-9-methoxy-1-methyloctahydro-1H-pyrano[4′,3′:4,5][1,3]oxazolo[2,3-c][1,4]oxazin-3-yl]oxy}-6,11-dioxo-1,2,3,4,6,11-hexahydrotetracen-2-yl]ethylidene}hexanehydrazide]
SK-BR-3 in vitro cell viability at 3 days, anti-proliferative activity in words (SK-BR-3 cells): less potent than free Ant
BT-474 in vitro cell viability at 3 days, anti-proliferative activity in words (BT-474 cells): minimal anti-proliferative activity
DoxRes HER2 in vitro cell viability at 3 days, anti-proliferative activity in words [2]: less potent than free Ant
MCF7 in vitro cell viability at 3 days, anti-proliferative activity in words (MCF7 cells): minial anti-proliferative activity

From patent US9695240B2, “Anthracycline derivative conjugates, process for their preparation and their use as antitumor compounds” (Genentech, Inc., priority 2008, dated 2017)
